The record followed here is PMC5307958 (Scientific Reports, 2017).

“Also recorded” adds a separate entry of the source. Where a SMILES comes first, the peptide text is derived from it. Bridges are numbered along the chain shown (N, C = ends).

Series [1] is described as follows: Blood-brain barrier crossing inferred from functional activity in the IC. It is filed as in vivo, mouse. To be noted: inferred from suppression of sound evoked activity after topical (dura) or systemic (0.3 mg/kg I.P.) administration. The method, then: The temperature was maintained near 25 °C.
Series [2] deals with human BKα channel ZERO isoform expressed in HEK293 cells. The series can be described thus: Phagemid display selection (panning). It is filed as binding. An excerpt: A monovalent phagemid display library (library C, Mobitec) was sequentially panned against three sets of HEK293 cells (see below). For negative selection, cells expressed the human glycine receptor α1 (hGlyRα1, X52009) and the rat small conductance calcium-activated channel 2 (rSK2, U69882.1). For positive selection, cells expressed the human BKα channel ZERO isoform (NM_002238). The progress of the selection process was monitored after each panning round by titering and sequencing the phagemid DNA. With 6 randomized and 3 fixed amino acids, this library started with 3 × 10^7 unique sequences. LS3 was selected as one of the sequences expressing motifs that were enriched more than 1000 -fold. LS3 was synthesized as a TFA salt at 98–99% purity verified by HPLC and MS analysis (Genscript, Piscataway, NJ). Stocks were dissolved in water at 10 mM and aliquots were lyophilized and stored at −80 °C. As a secondary determination of identity and purity, in-house LC/MS was performed on a single quadrupole Mass Spectrophotometer (Agilent 6130) interfaced with a HPLC with a diode-array (UV-vis) detector (Agilent 1200).
HEK293 cells (ATCC, Manassas, VA) were grown according to standard procedures. Cells were cultured at 37 °C in a 5% CO2 atmosphere in Dulbecco’s modified Eagle’s medium with L-glutamine, sodium pyruvate and 10% fetal bovine serum (Invitrogen). Cell lines were split with trypsin/EDTA in Hanks’ balanced salt solution (Invitrogen) up to 25–30 cycles. For phage display, stable lines stably expressed rSK2 or hBKα ZERO isoform. Cells were transfected (Lipofectamine 2000, Invitrogen) with hGlyRα1 and used 48 hours later. For electrophysiological recordings, cells were transfected with hBKα ZERO isoform. Enhanced green fluorescent protein (EGFP) was cotransfected as a marker. Electrophysiological recordings were made 16–72 h after transfection. […]

For series [3], the system named is wild-type worms (N2 Bristol; BK channel ortholog SLO-1). The experiment in a line: C. elegans crawl speed, wild-type. It is filed as in vivo, Caenorhabditis elegans. To be noted: for crawl speed relative to controls: 30 min pre-incubation in puddle, age-matched day one adults, tracked 1 min, p < 0.001; for effect on crawl speed: wild type, 30 min, p<0.001, N=81-210, planned Student's t-tests. Here is the method: Worms were cultivated at 20 °C as described with OP50 bacteria. Worms cultured on plates contaminated with fungi or other bacteria were excluded from this study. The reference wild-type strain was N2 Bristol. The reference slo-1(null) strain and background for transgenic strains was NM1968, harboring the previously characterized null allele, js379[29]. Multi-site gateway technology (Invitrogen) was used to construct plasmids. […] of the native slo-1 promoter (Pslo-1) and the traditional unc-54 UTR were used in combination with slo-1a(cDNA)::mCherry for a rescue construct. To test rescue with the human BK channel, an hslo(ZERO isoform, cDNA)::mCherry version was constructed. The slo-1(+) and hslo(+) plasmids were injected at a concentration of 20 and 10 ng/μl, respectively. The co-injection reporter PCFJ90 (1.25 ng/μl) was used to ensure proper transformation of the arrays. As such, JPS345 carried vxEx345, an extrachromosomal array containing [Pslo-1::slo-1::mCherry::unc-54UTR,Pmyo-2::mCherry::unc-54UTR]. JPS340 carried […], an extrachromosomal array containing [Pslo-1::hslo::mCherry::unc-54UTR,Pmyo-2::mCherry::unc-54UTR].
Age-matched day one adults were cleaned of bacteria by letting them crawl around on an unseeded plate and then moved into a puddle of NGM or peptide dissolved in NGM on another unseeded plate. NGM and peptide treatment groups were always run in tandem to control for behavioral variance. While much shorter than typical drug applications in C. elegans, brief application in liquid was chosen to avoid potential catabolic by-products of incubation on metabolically active E. coli. Higher LS3 concentrations were used to compensate. The puddle was refreshed 1–2 times as needed, but let to fully absorb into the agar by 30 minutes. After 30 minutes, crawl behavior was videoed (Flea2 camera, Point Grey Research, Canada; StreamPix 3, NorPix, Canada). Copper rings restricted movement to a proscribed area. The worms were tracked offline using custom macros (Image-Pro, MediaCybernetics, Rockville, MD) for 1 minute to obtain crawl speed (cm/min). Group means ± SEM for peptide-treated vs. vehicle-treated controls were compared at each concentration with Student’s t-tests. Rescue analysis was completed with two-way ANOVA (SigmaPlot, San Jose, CA). Crawl speeds for the peptide treated groups were also normalized to the performance of yoked controls. Normalized group means±SEM were compared vs. slo-1 null performance by two-way ANOVA.

The mark [4] stands for this setting: phage-displayed sequence CRRGLVQVC

Take `CC(C)C[C@@H]1NC(=O)CNC(=O)[C@H](CCCNC(=N)N)NC(=O)[C@H](CCCNC(=N)N)NC(=O)[C@@H](N)CSSC[C@@H](C(=O)O)NC(=O)[C@H](C(C)C)NC(=O)[C@H](CCC(N)=O)NC(=O)[C@H](C(C)C)NC1=O` [LS3] (H-CRRGLVQVC-OH; disulfide 1-9; N-terminus and C-terminus assumed): the “ability to cross the BBB” value in series [1] was “can cross the BBB; also recorded: rapidly crosses the BBB after systemic delivery; also recorded: crosses the blood-brain barrier (BBB)”. Further, in series [2] (criterion for selection of LS3), the “enrichment of motifs expressed by the sequence” value is reported as “more than 1000 fold”. Moreover, the “enrichment of motif RRXXXXV during selection” value in series [2] (setting [4]) was ~ 4000 fold. Besides, the “enrichment of motif XRGXXXV during selection” value in series [2] (setting [4]) is ~ 3000 fold. For the same compound, the “crawl speed relative to controls” value in series [3] (250 μM LS3 in NGM) was ~ 85%; in series [3] (750 μM LS3 in NGM), ~ 70%. The “effect on crawl speed” value in series [3] (75 µM LS3 vs. vehicle), in series [3] (250 µM LS3 vs. vehicle) and in series [3] (750 µM LS3 vs. vehicle) was “reduced” each time. Further, in series [3] (wild-type, LS3 in NGM, 30 min bath, WT vs. slo-1(null) at 250 and 750 μM: p < 0.05 and p < 0.001, N = 139–372), the “effect on crawl speed / locomotion” value is “reduced crawl speed; also recorded: slowed locomotion in a concentration-dependent manner”.
